These results are taken from patent publication US9890185B2, “Urea derivatives useful as kinase inhibitors” (Respivert Limited, priority 2013, dated 2018).

One assay addresses GSK 3α (Homo sapiens (Human), UniProt P49840). Briefly: GSK 3α enzyme inhibition (FRET, Z-LYTE, Method 2). In kind it is biochemical. The note with it: read-out: IC50 Values for Enzyme Inhibition, GSK3α. As for the experimental part:
The enzyme inhibitory activities of compounds disclosed herein are determined by FRET using synthetic peptides labelled with both donor and acceptor fluorophores (Z-LYTE, Invitrogen Ltd., Paisley, UK).
The following two assay variants can be used for determination of GSK 3α inhibition.
The inhibitory activities of compounds of the invention against the GSK 3α enzyme isoform (Invitrogen), are evaluated by determining the level of activation/phosphorylation of the target peptide. The GSK3-α protein (500 ng/mL, 2.5 μL) is mixed with the test compound (2.5 μL at either 4 μg/mL, 0.4 μg/mL, 0.04 μg/mL, or 0.004 μg/mL) for 2 hr at RT. The FRET peptide (8 μM, 2.5 μL), which is a phosphorylation target for GSK3α, and ATP (40 μM, 2.5 μL) are then added to the enzyme/compound mixture and the resulting mixture incubated for 1 hr. Development reagent (protease, 5 μL) is added for 1 hr prior to detection in a fluorescence microplate reader (Varioskan® Flash, ThermoFisher Scientific).
In all cases, the site-specific protease cleaves non-phosphorylated peptide only and eliminates the FRET signal. Phosphorylation levels of each reaction are calculated using the ratio of coumarin emission (donor) over fluorescein emission (acceptor), for which high ratios indicate high phosphorylation and low ratios indicate low phosphorylation levels. The percentage inhibition of each reaction is calculated relative to non-inhibited control and the 50% inhibitory concentration (IC50 value) is then calculated from the concentration-response curve.
This method follows the same steps as Method 1 above, but utilises a shorter period of mixing of the test compound (105 minutes instead of 2 hours) with the GSK3-α protein.

In another assay the test system is PBMCs. Description: LPS-induced IL-8 release in PBMC cells (assay b). It is filed as cell-based, human. The note with it: Homo sapiens, PBMC; LPS-stimulated PBMCs; read-out: IC50 Values for Inhibition of Cytokine Release, PBMCs IL-8. Here is the method:
Peripheral blood mononuclear cells (PBMCs) from healthy subjects are separated from whole blood using a density gradient (Lymphoprep, Axis-Shield Healthcare). The PBMCs are seeded in 96 well plates and treated with compounds at the desired concentration for 2 hours before addition of 1 ng/mL LPS (Escherichia Coli 0111:B4 from Sigma Aldrich) for 24 hours under normal tissue culture conditions (37° C., 5% CO2). The supernatant is harvested for determination of IL-8 and TNFα concentrations by sandwich ELISA (Duo-set, R&D systems) and read on the fluorescence microplate reader (Varioskan® Flash, ThermoFisher Scientific). The concentration at 50% inhibition (IC50) of IL-8 and TNFα production is calculated from the dose response curve.

Chain of GSK 3α (P49840 whole entry): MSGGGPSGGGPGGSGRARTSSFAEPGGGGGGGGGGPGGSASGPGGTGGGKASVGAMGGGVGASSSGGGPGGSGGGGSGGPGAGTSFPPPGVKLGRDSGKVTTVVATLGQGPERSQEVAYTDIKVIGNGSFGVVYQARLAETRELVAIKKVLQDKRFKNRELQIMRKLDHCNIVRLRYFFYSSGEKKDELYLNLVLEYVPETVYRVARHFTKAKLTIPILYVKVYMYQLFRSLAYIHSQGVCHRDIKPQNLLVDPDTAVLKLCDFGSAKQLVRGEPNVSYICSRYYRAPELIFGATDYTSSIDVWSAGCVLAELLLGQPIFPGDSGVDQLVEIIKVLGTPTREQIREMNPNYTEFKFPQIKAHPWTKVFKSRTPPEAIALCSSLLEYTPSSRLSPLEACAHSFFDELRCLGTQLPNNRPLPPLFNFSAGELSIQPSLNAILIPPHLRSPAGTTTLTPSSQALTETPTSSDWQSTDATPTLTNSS

For `COc1c(NC(=O)Nc2ccc(Oc3ccnc(Nc4cnn(C)n4)c3)c3ccccc23)cc(C(C)(C)C)cc1P(C)(C)=O` [15(ar), 1-(5-(tert-butyl)-3-(dimethylphosphoryl)-2-methoxyphenyl)-3-(4-((2-((2-methyl-2H-1,2,3-triazol-4-yl)amino)pyridin-4-yl)oxy)naphthalen-1-yl)urea], the values for the IC50 at GSK 3α and in the assay with PBMCs were 356 nM and 0.8 nM, respectively.
For `COc1c(CN(C)C(C)=O)cc(C(C)(C)C)cc1NC(=O)Nc1ccc(Oc2ccnc(Nc3ccccc3)c2)c2ccccc12` [38(aa), N-(5-(tert-Butyl)-2-methoxy-3-(3-(4-((2-(phenylamino)pyridin-4-yl)oxy)naphthalen-1-yl)ureido)benzyl)-N-methylacetamide], in that order: 8290 nM and 2.5 nM.
Take `COc1cc(Nc2cc(Oc3ccc(NC(=O)Nc4cc(C(C)(C)C)cc(P(C)(C)=O)c4OC)c4ccccc34)ccn2)ccc1C(=O)N1CCN(C)CC1` [79(a), 1-(5-tert-Butyl-3-dimethylphosphoryl-2-methoxy-phenyl)-3-[4-[[2-[3-methoxy-4-(4-methylpiperazine-1-carbonyl)anilino]-4-pyridyl]oxy]-1-naphthyl]urea]: the concentration for half-maximal inhibition (IC50) on GSK 3α was determined as 480 nM; in the assay on PBMCs, 5.1 nM.
As to `COc1c(NC(=O)Nc2ccc(Oc3ccnc(Nc4cc(C)cc(Cl)c4)c3)c3ccccc23)cc(C(C)(C)C)cc1P(C)(C)=O` [15(am), 1-(5-(tert-butyl)-3-(dimethylphosphoryl)-2-methoxyphenyl)-3-(4-((2-((3-chloro-5-methylmethylphenyl)amino)pyridin-4-yl)oxy)naphthalen-1-yl)urea], in the assay on PBMCs, the IC50 was 6.1 nM.
With `COc1cc(Nc2nccc(Oc3ccc(NC(=O)Nc4cc(C(C)(C)C)cc([S+](C)[O-])c4OC)c4ccccc34)n2)ccc1C(=O)O` (stereo not shown) [79(j), 4-((4-((4-(3-(5-(tert-Butyl)-2-methoxy-3-(methylsulfinyl)phenyl)ureido)naphthalen-1-yl)oxy)pyrimidin-2-yl)amino)-2-methoxybenzoic acid], the IC50 with PBMCs was determined as 15.3 nM.
For the compound `Cc1c(NC(=O)Nc2ccc(Oc3ccnc(Nc4ccccc4)c3)c3ccccc23)cc(C(C)(C)C)cc1P(C)(C)=O` [15(ap), 1-(5-(tert-butyl)-3-(dimethylphosphoryl)-2-methylphenyl)-3-(4-((2-(phenylamino)pyridin-4-yl)oxy)naphthalen-1-yl)urea], the 50% inhibitory concentration (IC50) is above 16900 nM on GSK 3α and 48.3 nM with PBMCs.
For the compound `COCCOCCOCCNC(=O)c1cc(Nc2nccc(Oc3ccc(NC(=O)Nc4cc(C(C)(C)C)cc(CNC(=O)CN(C)C)c4OC)c4ccccc34)n2)cc(OC)c1` [Example 81, 3-((4-((4-(3-(5-(tert-Butyl)-3-((2-(dimethylamino)acetamido)methyl)-2-methoxyphenyl)ureido)-naphthalen-1-yl)oxy)pyrimidin-2-yl)amino)-5-methoxy-N-(2-(2-(2-methoxyethoxy)ethoxy)-ethyl)benzamide], the IC50 in the assay with PBMCs came to 0.4 nM.
The same measure, in the same setting: the value for `COc1cc(Nc2nccc(Oc3ccc(NC(=O)Nc4cc(C(C)(C)C)cc([S+](C)[O-])c4OC)c4ccccc34)n2)cc(C(=O)NCCN2CCN(C)CC2)c1` (stereo not shown) [Example 83, 3-((4-((4-(3-(5-(tert-Butyl)-2-methoxy-3-(methylsulfinyl)phenyl)ureido)naphthalen-1-yl)oxy)pyrimidin-2-yl)amino)-5-methoxy-N-(2-(4-methylpiperazin-1-yl)ethyl)benzamide] was 1.5 nM.
As for `COc1c(NC(=O)Nc2ccc(Oc3ccnc(Nc4ccc5c(c4)CS(=O)(=O)C5)n3)c3ccccc23)cc(C(C)(C)C)cc1P(C)(C)=O` [15(y), 1-(5-(tert-butyl)-3-(dimethylphosphoryl)-2-methoxyphenyl)-3-(4-((2-((2,2-dioxido-1,3-dihydrobenzo[c]thiophen-5-yl)amino)pyrimidin-4-yl)oxy)naphthalen-1-yl)urea], the values for the 50% inhibitory concentration (IC50) on GSK 3α and in the assay on PBMCs were 194 nM and 0.9 nM, respectively.
With `COc1cc(Nc2nccc(Oc3ccc(NC(=O)Nc4cc(C(C)(C)C)cc(S(C)(=O)=O)c4OC)c4ccccc34)n2)ccc1C(=O)O` [79(i), 4-((4-((4-(3-(5-(tert-Butyl)-2-methoxy-3-(methylsulfonyl)phenyl)ureido)naphthalen-1-yl)oxy)pyrimidin-2-yl)amino)-2-methoxybenzoic acid], the half-maximal inhibitory concentration (IC50) in the assay with PBMCs was 12.2 nM.
For `COc1c(NC(=O)Nc2ccc(Oc3ccnc(N[C@@H]4CCOC4)n3)c3ccccc23)cc(C(C)(C)C)cc1P(C)(C)=O` [15(ai), (R)-1-(5-(tert-butyl)-3-(dimethylphosphoryl)-2-methoxyphenyl)-3-(4-((2-((tetrahydrofuran-3-yl)amino)pyrimidin-4-yl)oxy)naphthalen-1-yl)urea], the IC50 on GSK 3α is 127 nM; in the assay with PBMCs, 3.7 nM.
In the same order, the values of `COc1c(NC(=O)Nc2ccc(Oc3ccnc(Nc4ccccc4)c3)c3ccccc23)cc(C(C)(C)C)cc1[S+](C)[O-]` (stereo not shown) [38(b1), 1-(5-(tert-Butyl)-2-methoxy-3-(methylsulfinyl)phenyl)-3-(4-((2-(phenylamino)pyridin-4-yl)oxy)naphthalen-1-yl)urea] are above 9660 nM and 8.3 nM.
`COc1cc(Nc2cc(Oc3ccc(NC(=O)Nc4cc(C(C)(C)C)cc(C(=O)NCCN5CCNCC5)c4OC)c4ccccc34)ccn2)cc(OC)c1` [79(h), 5-(tert-Butyl)-3-(3-(4-((2-((3,5-dimethoxyphenyl)amino)pyridin-4-yl)oxy)naphthalen-1-yl)ureido)-2-methoxy-N-(2-(piperazin-1-yl)ethyl)benzamide]: the IC50 in the assay with PBMCs is 16.4 nM.
For `COCCOCCOCCOc1cc(Nc2cc(Oc3ccc(NC(=O)Nc4cc(C(C)(C)C)cc(P(C)(C)=O)c4OC)c4ccccc34)ncn2)cc(OC)c1` [Example 4, 1-(5-(tert-Butyl)-3-(dimethylphosphoryl)-2-methoxyphenyl)-3-(4-((6-((3-methoxy-5-(2-(2-(2-methoxyethoxy)ethoxy)ethoxy)phenyl)amino)pyrimidin-4-yl)oxy)naphthalen-1-yl)urea], the IC50 amounted to 4100 nM on GSK 3α and 5.6 nM with PBMCs.
Turning to `COc1cc(Nc2cc(Oc3ccc(NC(=O)Nc4cc(C(C)(C)C)cc(P(C)(C)=O)c4OC)c4ccccc34)ccn2)cc(C(=O)N(C)CCN2CCN(C)CC2)c1` [79(k), 3-((4-((4-(3-(5-(tert-Butyl)-3-(dimethylphosphoryl)-2-methoxyphenyl)ureido)naphthalen-1-yl)oxy)pyridin-2-yl)amino)-5-methoxy-N-methyl-N-(2-(4-methylpiperazin-1-yl)ethyl)benzamide], the IC50 in the assay with PBMCs was found to be 7 nM.
Still for that read-out and setting: the value for `COc1cc(Nc2cc(Oc3ccc(NC(=O)Nc4cc(C(C)(C)C)cc(P(C)(C)=O)c4OC)c4ccccc34)ccn2)cc(C(=O)N(C)CCC2CCN(C)CC2)c1` [79(l), 3-((4-((4-(3-(5-(tert-Butyl)-3-(dimethylphosphoryl)-2-methoxyphenyl)ureido)naphthalen-1-yl)oxy)pyridin-2-yl)amino)-5-methoxy-N-methyl-N-(2-(1-methylpiperidin-4-yl)ethyl)benzamide] was 22.5 nM.
The same measure, in the same setting: the value for `COCCOCCOCCNC(=O)c1cc(Nc2cc(Oc3ccc(NC(=O)Nc4cc(C(C)(C)C)cc(CN5CCN(C)CC5)c4OC)c4ccccc34)ccn2)cc(OC)c1` [Example 82, 3-((4-((4-(3-(5-(tert-Butyl)-2-methoxy-3-((4-methylpiperazin-1-yl)methyl)phenyl)ureido)-naphthalen-1-yl)oxy)pyridin-2-yl)amino)-5-methoxy-N-(2-(2-(2-methoxyethoxy)ethoxy)ethyl)-benzamide] was 1.7 nM.

In general, IC50 refers to the midpoint of a concentration-inhibition curve.
